{"source": "patent US12178846B2", "about": "“Methods of using gap junctions as therapeutic targets for the treatment of degenerative disorders of the retina” (The Research Foundation for The State University of New York, priority 2014, dated 2024)", "key": {"[1]": {"test_system": "cells in the GCL of mouse retinas", "assay": "NMDA-induced excitotoxic cell death in the GCL of retina-eyecups", "assay_type": "cell-based", "description": "All animal procedures were in compliance with the NIH Guide for the Care and Use of Laboratory Animals and approved by the Institutional Animal Care and Use Committees at SUNY College of Optometry. Experiments were performed on retinas of wild type (WT), connexin knockout (KO) mice (Cx36^−/−, Cx45^−/−, and Cx36^−/−/45^−/− dKO), and their heterozygous (Het) littermates. The methods used to impale and label neurons have been described previously (Hu et al., J Neurosci 23:[…] (2003); Völgyi et al., Journal of Comparative Neurology 512:664-687 (2009)). Briefly, flattened retina-eyecups were placed in a superfusion chamber, which was mounted on the stage of a BX51WI light microscope (Olympus) within a light-tight Faraday cage. […] The retina-eyecups were superfused with a modified, oxygenated Ames medium maintained at 35° C.\nVarious methods were employed to produce cell death. (1) Single cell apoptosis: CytC was injected into individual RGCs or Müller cells for 15 minutes after which retinas were incubated for 4 hours in oxygenated Ames medium before fixation. After streptavidin histology, apoptotic cells were detected with an anti-active caspase 3 antibody or with Terminal deoxynucleotidyl transferase dUTP nick end labeling (TUNEL) staining. (2) Excitotoxicity: To assess the contribution of GJs to cell death within populations of RGCs and amacrine cells we conducted parallel experiments in which retinas were preincubated for 20 minutes in normal Ames medium or in one containing the GJ blockers meclofenamic acid (MFA; 50 μM) or 18-beta-glycyrrhetinic acid (18Beta-GA; 25 μM). Both control and drug-treated retinas were then exposed for 1 hour to NMDA (100-300 μM) to induce excitotoxicity followed by 4 hours in the control Ames solution. (3) Retinal ischemia: Transient in vivo retinal ischemia was induced by introducing into the anterior chamber a 33-gauge needle attached to a saline-filled reservoir (0.9% sodium chloride) that was raised above the animal so as to increase intraocular pressure (IOP) to a level […]. MFA (2 μl, 500 μM) was administered intravitreally either 30 minutes before or 3 and 24 hours following the ischemic insult. […]\nApoptotic and necrotic cell death were assessed by cell counts following: (1) staining with Live/Death Viability Assay (calcein AM/ethidium homodimer (EthD) (Invitrogen); (2) TUNEL, or, (3) labeling for activated caspase 3. For population studies, dead cells were counted manually within 500×500 μm areas (5 areas per retina) from micrographs of whole-mounts using images acquired by confocal microscope. Nuclear cell counts were made per unit length (500 μm) of frozen retinal cross-sections labeled with propidium iodide (2 μg/ml)."}, "[2]": {"test_system": "amacrine cells in the INL", "assay": "NMDA-induced excitotoxic loss of amacrine cell subpopulations in the INL", "assay_type": "cell-based, mouse", "description": "Various methods were employed to produce cell death. (1) Single cell apoptosis: CytC was injected into individual RGCs or Müller cells for 15 minutes after which retinas were incubated for 4 hours in oxygenated Ames medium before fixation. […] Both control and drug-treated retinas were then exposed for 1 hour to NMDA (100-300 μM) to induce excitotoxicity followed by 4 hours in the control Ames solution. (3) Retinal ischemia: Transient in vivo retinal ischemia was induced by introducing into the anterior chamber a 33-gauge needle attached to a saline-filled reservoir (0.9% sodium chloride) that was raised above the animal so as to increase intraocular pressure (IOP) to a level […]. MFA (2 μl, 500 μM) was administered intravitreally either 30 minutes before or 3 and 24 hours following the ischemic insult. The opposite eye was cannulated, but maintained at normal IOP to serve as a normotensive control. After 40-50 minutes, the needle was withdrawn and ischemia was evidenced by corneal whitening. After 7 days of reperfusion, mice were sacrificed and eyes were processed to assess retinal damage and neuronal death. […]\nIn some experiments, cells counts were limited to retrograde labeled RGCs in the GCL or certain subpopulation of amacrine cells, identified by specific markers, such as calretinin (CR), calbindin (CB) and choline acetyltransferase (ChAT) in the INL. Fluorescence intensity measures were made of glial fibrillary acidic protein (GFAP), which is overexpressed in Müller glial cells following retinal injury. Expression of GFAP and connexins were quantified by analysis of confocal images with Metavue software (Molecular Devices). Average pixel fluorescence intensities were measured by using uniform rectangular areas (3-5 per image) extending either from the GCL to the outer limiting membrane for GFAP or through the IPL for connexins. […]"}, "[3]": {"test_system": "NMDA receptors", "conditions": "at the concentrations tested here; cited from earlier work"}, "[4]": {"conditions": "MFA 50 μM 30 min, NMDA 300 μM 1 h, p<0.01"}}, "note": "“Also recorded” adds a separate entry of the source.", "data": [{"smiles": "Cc1ccc(Cl)c(Nc2ccccc2C(=O)O)c1Cl", "note": "[MFA, meclofenamic acid]", "values": [{"measurement": "cell viability, blocker alone", "setting": "[1]", "value": "did not affect cell viability"}, {"measurement": "cell death in the GCL induced by excitotoxicity", "setting": "[1]; retinas preincubated in 18Beta-GA 25 μM or MFA 50 μM, then NMDA 100-300 μM 1 h, vs NMDA alone, p<0.001", "value": "significantly reduced"}, {"measurement": "number of CB-immunolabeled ACs in the INL", "setting": "[2]; [4]", "value": "prevented the loss; also recorded: prevented such reduction"}, {"measurement": "number of CR-immunolabeled ACs in the INL", "setting": "[2]; [4]", "value": "prevented the loss; also recorded: prevented reduction"}, {"measurement": "number of ChAT-positive ACs in the INL", "setting": "[2]; MFA, NMDA-induced excitotoxicity, p>0.1", "value": "nor was this affected"}, {"measurement": "inhibitory effect on NMDA receptors in neurons", "setting": "[3]", "value": "no inhibitory effect"}]}]}
